This experiment deals with HFD-fed B6.CD45.1^+ mice. Kind of experiment: Metabolic indices (ITT, GTT, fasting insulin, body weight) in HFD-fed mice after vTreg53 Treg transfer and immunization. It is filed as in vivo, mouse. As to conditions: n ≥ 7. From the text: Figure 7. Immunization with Fat1562 following vTreg53 Treg transfer ameliorates HFD-induced insulin resistance. (A–F) Metabolic indices of mice treated as in Figure 6A (n ≥ 7). (A) Body weight. (B) Insulin tolerance test (ITT). (C) Area over curve for ITT analysis. (D) Glucose tolerance test (GTT). (E) Area under curve for GTT analysis. (F) Plasma insulin levels after 6 hr of fasting. Data shown are representative of at least two independent experiments. (G) Scheme of the anti-TNFα experiment. (H) Number of total Treg cells in VAT (n ≥ 5). (I) Number of CD11c^hi inflammatory macrophages in VAT (n ≥ 5). (J) ITT (n ≥ 5). (K) Area over curve for ITT analysis (n ≥ 5). Data are mean ± SD. Figure 7—figure supplement 1. Absolute blood glucose levels. ITT analysis of mice transferred with vTreg53 TCR-tg Tregs and immunized with adjuvant/Fat1562 or adjuvant alone. Data shown are representative of at least two independent experiments (n ≥ 5). [drawing 7]
To assess early Treg proliferation following peptide stimulation in vivo, 0.4 million Treg cells were sorted from pooled Spl and LNs of 6-8wk-old male CD45.2^+ Tg^+ Foxp3-GFP^KI/y mice by Moflo, labeled by the CellTrace Violet dye (ThermoFisher Scientific), and were i.v.-injected into 6-8wk old male B6.CD45.1^+ mice. The next day, the recipient mice were injected with 200 µg peptides emulsified in CFA (CFA/peptides) s.c. on the lower back. Proliferation of clonotype^+ Tregs in the spleen was determined three days later. To examine the expansion of VAT-Treg cells by peptide immunization, we sorted 0.4 million Treg cells from pooled Spl/LNs of 6-8wk-old male CD45.2^+ Tg^+ Foxp3-GFP^KI/y mice and transferred them i.v. into 6-8wk old male B6.CD45.1^+ mice. Six weeks later, the recipient mice were immunized with 200 µg CFA/peptides s.c. on the lower back, and one week later were boosted with 100 μg IFA/peptides i.p. After another week, clonotype^+ CD45.2^+ Treg cells from the Spl/LNs or VAT of recipient mice were analyzed by flow cytometry and double-sorted for ultra-low-input RNA-seq. […] One week after the IFA/peptides injection, metabolic parameters (GTT, ITT, fasting plasma insulin levels) and the composition of different immunocytes were determined.
For GTT, mice were fasted for 15 hr overnight, weighed, and tested for fasting blood-glucose concentrations. […] Blood-glucose levels were measured before and 20, 40, 60, 90, and 120 min after glucose injection. […] Blood-glucose levels were measured before and 20, 40, 60, 90, and 120 min after insulin injection, and were normalized to the blood-glucose levels before insulin injection. The area under the curve (for GTT) or area over the curve (for ITT) were calculated using GraphPad Prism 7.0.

The values below come from article PMC7440915, “Discovery of surrogate agonists for visceral fat Treg cells that modulate metabolic indices in vivo” (eLife, 2020).

Where no end group is shown, it is not given here.

As to TMYKNPRPMAATG [Fat1562], where the note is “GTT, 2.0 g glucose per kg i.p., 15 hr fast”, the “glucose tolerance” value is recorded as “promoted glucose tolerance”. Also, the “insulin sensitivity” value (ITT, 0.6 U insulin per kg i.p., 6 hr fast) is reported as “improved systemic insulin sensitivity”. Moreover, the “body weight” value (adjuvant/Fat1562 vs adjuvant alone) is recorded as “similar”. In addition, the “fasting plasma insulin levels” value (after 6 hr of fasting) is given as “reduced fasting plasma insulin levels”.
